Values quoted from earlier work in PubChem BioAssay AID1259410 (Chemical Carcinogenesis Research Information System (CCRIS), 2018).

System: rodent tumor promotion studies, tumor incidence
Assay: CCRIS tumor promotion studies
[1] = Carcinogen: 7,12-DIMETHYLBENZ(A)ANTHRACENE, Doses [Carcinogen]: TOP, Route [Carcinogen]: DERMAL, Route [Promoter]: DERMAL, Species: MOUSE, Strain/Sex: FEMALE

Clc1cc2c(cc1Cl)Oc1cc(Cl)c(Cl)cc1O2
outcome (Carcinogen: 7,12-DIMETHYLBENZ(A)ANTHRACENE, Doses [Carcinogen]: 0.2 UMOL, Route [Carcinogen]: DERMAL, Route [Promoter]: DERMAL, Species: MOUSE, Strain/Sex: HRS/FEMALE): integumentary system (skin): papilloma | outcome (Carcinogen: DIETHYLNITROSAMINE [55-18-5], Doses [Carcinogen]: 175 MG/KG BW ONCE AT 10 WK OF AGE (STUDY DURATION: 32 WK), Doses [Promoter]: 1750 NG/KG IN CORN OIL 1X/2 WK FOR 14 WK BEGINNING 18 WK POST CARCINOGEN DOSE (STUDY DURATION: 32 WK), Route [Carcinogen]: INTRAPERITONEAL, Route [Promoter]: GAVAGE, Species: RAT, Strain/Sex: SPRAGUE-DAWLEY/FEMALE): ovary: tumor | outcome (Carcinogen: DIETHYLNITROSAMINE [55-18-5], Doses [Carcinogen]: 175 MG/KG BW ONCE AT 10 WK OF AGE (STUDY DURATION: 32 WK), Doses [Promoter]: 1750 NG/KG IN CORN OIL 1X/2 WK FOR 30 WK BEGINNING 2 WK POST CARCINOGEN DOSE (STUDY DURATION: 32 WK), Route [Carcinogen]: INTRAPERITONEAL, Route [Promoter]: GAVAGE, Species: RAT, Strain/Sex: SPRAGUE-DAWLEY/FEMALE): ovary: tumor | outcome (Carcinogen: DIETHYLNITROSAMINE [55-18-5], Doses [Carcinogen]: 175 MG/KG BW ONCE AT 10 WK OF AGE (STUDY DURATION: 48 WK), Doses [Promoter]: 1750 NG/KG IN CORN OIL 1X/2 WK FOR 30 WK BEGINNING 2 WK POST CARCINOGEN DOSE (STUDY DURATION: 48 WK), Route [Carcinogen]: INTRAPERITONEAL, Route [Promoter]: GAVAGE, Species: RAT, Strain/Sex: SPRAGUE-DAWLEY/FEMALE): ovary: tumor | outcome (Carcinogen: DIETHYLNITROSAMINE [55-18-5], Doses [Carcinogen]: 175 MG/KG BW ONCE AT 10 WK OF AGE (STUDY DURATION: 48 WK), Doses [Promoter]: 1750 NG/KG IN CORN OIL 1X/2 WK FOR 30 WK BEGINNING 18 WK POST CARCINOGEN DOSE (STUDY DURATION: 48 WK), Route [Carcinogen]: INTRAPERITONEAL, Route [Promoter]: GAVAGE, Species: RAT, Strain/Sex: SPRAGUE-DAWLEY/FEMALE): ovary: tumor | outcome (Carcinogen: DIETHYLNITROSAMINE [55-18-5], Doses [Carcinogen]: 175 MG/KG BW ONCE AT 10 WK OF AGE (STUDY DURATION: 54 WK), Doses [Promoter]: 1750 NG/KG IN CORN OIL 1X/2 WK FOR 30 WK BEGINNING 18 WK POST CARCINOGEN DOSE (STUDY DURATION: 54 WK), Route [Carcinogen]: INTRAPERITONEAL, Route [Promoter]: GAVAGE, Species: RAT, Strain/Sex: SPRAGUE-DAWLEY/FEMALE): ovary: tumor | outcome (Carcinogen: DIETHYLNITROSAMINE [55-18-5], Doses [Carcinogen]: 175 MG/KG BW ONCE AT 10 WK OF AGE (STUDY DURATION: 62 WK), Doses [Promoter]: 1750 NG/KG IN CORN OIL 1X/2 WK FOR 30 WK BEGINNING 2 WK POST CARCINOGEN DOSE (STUDY DURATION: 62 WK), Route [Carcinogen]: INTRAPERITONEAL, Route [Promoter]: GAVAGE, Species: RAT, Strain/Sex: SPRAGUE-DAWLEY/FEMALE): ovary: tumor | outcome (Carcinogen: DIETHYLNITROSAMINE [55-18-5], Doses [Carcinogen]: 175 MG/KG BW ONCE AT 10 WK OF AGE (STUDY DURATION: 62 WK), Doses [Promoter]: 1750 NG/KG IN CORN OIL 1X/2 WK FOR 60 WK BEGINNING 2 WK POST CARCINOGEN DOSE (STUDY DURATION: 62 WK), Route [Carcinogen]: INTRAPERITONEAL, Route [Promoter]: GAVAGE, Species: RAT, Strain/Sex: SPRAGUE-DAWLEY/FEMALE): ovary: tumor | outcome (Carcinogen: DIETHYLNITROSAMINE, 55-18-5, Doses [Carcinogen]: 10 MG/KG ONCE, Doses [Promoter]: 0, 150 PPT IN DIET FOR DURATION OF STUDY BEGINNING 30 D POST CARCINOGEN DOSE (STUDY DURATION: 450 D), Route [Carcinogen]: INTRAPERITONEAL, Route [Promoter]: ORAL, Species: RAT, Strain/Sex: SPRAGUE-DAWLEY/FEMALE): liver: adenoma or carcinoma | outcome (Carcinogen: DIETHYLNITROSAMINE, 55-18-5, Doses [Carcinogen]: 90 MG/KG BW ONCE, Doses [Promoter]: 0, 0.5 UG/KG 1/WK FOR 20 WK BEGINNING 3 WK POST CARCINOGEN DOSE (STUDY DURATION: 47 WK), Route [Carcinogen]: INTRAPERITONEAL, Route [Promoter]: INTRAPERITONEAL, Species: MOUSE, Strain/Sex: B6D2F1/MALE): liver: tumor | outcome (Carcinogen: N-NITROSODIMETHYLAMINE, 62-75-7, Doses [Carcinogen]: 25 MG/KG ONCE AT 5 WK OF AGE, Doses [Promoter]: 0, 0.05 UG/KG/WK FOR 20 WK BEGINNING 3 WK POST CARCINOGEN DOSE (STUDY DURATION: 52 WK), Route [Carcinogen]: INTRAPERITONEAL, Route [Promoter]: INTRAPERITONEAL, Species: MOUSE, Strain/Sex: SWISS/MALE): lung: tumor | outcome (Carcinogen: N-NITROSODIMETHYLAMINE, 62-75-7, Doses [Carcinogen]: 25 MG/KG ONCE AT 5 WK OF AGE, Doses [Promoter]: 0, 1.6 UG/KG ONCE 3 WK POST CARCINOGEN DOSE (STUDY DURATION: 52 WK), Route [Carcinogen]: INTRAPERITONEAL, Route [Promoter]: INTRAPERITONEAL, Species: MOUSE, Strain/Sex: SWISS/MALE): lung: tumor | outcome (Doses [Carcinogen]: 5 UMOL IN 50 µL ACETONE, Doses [Promoter]: 3.75, 7.5, 15, 30 NG 2/WK, Doses [Promoter]: 3.75, 7.5, 15, 30 NG 2/WK, Route [Carcinogen]: DERMAL, Route [Promoter]: DERMAL, Species: MOUSE, Strain/Sex: HRS/FEMALE): integumentary system (skin): papilloma

CCCCCCCCCCCCO
outcome [1]: integumentary system (skin)

Oc1ccccc1
outcome (Carcinogen: 7,12-DIMETHYLBENZ(A)ANTHRACENE, Doses [Carcinogen]: 75 UG, SINGLE DOSE, Doses [Promoter]: 0, 2.5 MG 2/WK FOR 42 WK, Route [Carcinogen]: DERMAL, Route [Promoter]: DERMAL, Species: MOUSE, Strain/Sex: FEMALE): integumentary system (skin): carcinoma

Oc1ccc(O)cc1
outcome (Carcinogen: N-ETHYL-N-HYDROXYETHYLNITROSAMINE, 13147-25-6, Doses [Carcinogen]: 0.1% IN DRINKING WATER FOR 3 WK, Doses [Promoter]: 0, 0.8% IN DIET FOR 36 WK BEGINNING 1 WK POST CARCINOGEN TREATMENT (STUDY DURATION: 40 WK), Route [Carcinogen]: ORAL, Route [Promoter]: ORAL, Species: RAT, Strain/Sex: WISTAR/MALE): kidney: microadenoma, renal cell tumor | outcome (Carcinogen: N-METHYL-N-NITROSOUREA [684-93-5], Doses [Carcinogen]: 20 MG/KG BW ONCE ON DAY 9 AFTER BIRTH (STUDY DURATION: 28 WK), Doses [Promoter]: 0.8% IN DIET FOR 26 WK BEGINNING 2 WK POST LAST CARCINOGEN DOSE (STUDY DURATION: 28 WK), Route [Carcinogen]: INTRAPERITONEAL, Route [Promoter]: ORAL, Species: MOUSE, Strain/Sex: ICR (CD-1)/FEMALE): lung: adenoma | outcome (Carcinogen: N-METHYL-N-NITROSOUREA [684-93-5], Doses [Carcinogen]: 20 MG/KG BW ONCE ON DAY 9 AFTER BIRTH (STUDY DURATION: 28 WK), Doses [Promoter]: 0.8% IN DIET FOR 26 WK BEGINNING 2 WK POST LAST CARCINOGEN DOSE (STUDY DURATION: 28 WK), Route [Carcinogen]: INTRAPERITONEAL, Route [Promoter]: ORAL, Species: MOUSE, Strain/Sex: ICR (CD-1)/MALE): lung: carcinoma

Oc1ccc(F)cc1
outcome [1]: integumentary system (skin)

O=[As]O
outcome (Carcinogen: UV RADIATION 3X A WK FOR 6 MO STARTING 3 WKS AFTER ARSENITE, Doses [Promoter]: 5.0 MG/L STARTING AT 3 WKS OF AGE (STUDY DURATION: 28 WKS), Route [Carcinogen]: DERMAL, Route [Promoter]: DRINKING WATER, Species: MOUSE, Strain/Sex: CRL:SK1-HRBD (HAIRLESS)/FEMALE): skin: 3.6 tumors/mouse uv alone; 7.0 tumors/mouse uv and arsenite | outcome (Carcinogen: UV-B IRRADIATION (WESTINGHOUSE SOLAR FS-20 LAMP 85% IN 290-320 NM RANGE), Doses [Carcinogen]: 1.7 KJ/SQ M 3/WK FOR 182 D BEGINNING 3 WK POST PROMOTER FIRST DOSE, Doses [Promoter]: 0, 10 MG/L IN DRINKING WATER BEGINNING AT 21 D AFTER BIRTH (STUDY DURATION: 203 D), Route [Carcinogen]: DERMAL, Route [Promoter]: ORAL, Species: MOUSE, Strain/Sex: SKH/FEMALE): skin: squamous cell carcinoma

CC(=O)[C@H]1[C@H](C#N)C[C@H]2[C@@H]3CC=C4C[C@@H](O)CC[C@]4(C)[C@H]3CC[C@@]21C
outcome (Carcinogen: DIISOPROPANOLNITROSAMINE [53609-64-6], Doses [Carcinogen]: SINGLE DOSE OF 2.5 G/KG BW, Doses [Promoter]: 1000 PPM IN DIET BEGINNING 1 WK AFTER DIPN TREATMENT FOR 19 WKS (STUDY DURATION: 20 WKS), Route [Carcinogen]: SUBCUTANEOUS INJECTION, Route [Promoter]: DIET, Species: RAT, Strain/Sex: SPRAGUE-DAWLEY/MALE): thyroid: cystic adenoma, follicular adenoma, and follicular carcinoma

CCCCCCCC/C=C\CCCCCCCC(=O)OC[C@@H](O)[C@H]1OC[C@H](O)[C@H]1O
outcome (Carcinogen: 7,12-DIMETHYLBENZ(A)ANTHRACENE, Doses [Carcinogen]: TOP, Route [Carcinogen]: DERMAL, Route [Promoter]: DERMAL, Species: MOUSE, Strain/Sex: MALE): integumentary system (skin)

COc1ccc(N)cc1N
outcome (Carcinogen: N-BIS(2-HYDROXYPROPYL)NITROSAMINE, 53609-64-6, Doses [Carcinogen]: 210 MG/100 G, ONCE (STUDY DURATION: 20 WK), Doses [Promoter]: 0, 0.5% IN DIET FOR 19 WK (STUDY DURATION: 20 WK), Route [Carcinogen]: INTRAPERITONEAL, Route [Promoter]: ORAL, Species: RAT, Strain/Sex: WISTAR/MALE): thyroid gland: carcinoma, adenoma

CC1=C(/C=C/C(C)=C/C=C/C(C)=C\C(=O)O)C(C)(C)CCC1
outcome (Carcinogen: ETHYLNITROSOUREA [759-73-9], Doses [Carcinogen]: 120 UG/KG ONCE, Doses [Promoter]: 200 MG/KG FEED FOR 60 WK (STUDY DURATION: 60 WK), Route [Carcinogen]: IP INJECTION, Route [Promoter]: DIET, Species: MOUSE, Strain/Sex: B6C3F1/MALE (?,44)/(?,35)): liver: hepatocellular carcinoma
